According to paper PMC10892818, “An Antiherpesviral Host-Directed Strategy Based on CDK7 Covalently Binding Drugs: Target-Selective, Picomolar-Dose, Cross-Virus Reactivity” (Pharmaceutics, 2024):
Where two headings read alike, the source gives them in different places.

Key:
HCMV UL97-M460I [1] = tested on: HCMV UL97-M460I; parameters: method as in PMID 31940472; key: R-high, high-level drug resistance; R-int, intermediate-level drug resistance; R-low, low-level drug resistance; S, drug sensitivity; settings: cited from earlier work
HCMV UL97-H520Q [2] = tested on: HCMV UL97-H520Q; parameters: method as in PMID 31940472; key: R-high, high-level drug resistance; R-int, intermediate-level drug resistance; R-low, low-level drug resistance; S, drug sensitivity; settings: cited from earlier work
HCMV UL97-T409M [3] = tested on: HCMV UL97-T409M; parameters: method as in PMID 31940472; key: R-high, high-level drug resistance; R-int, intermediate-level drug resistance; R-low, low-level drug resistance; S, drug sensitivity; settings: cited from earlier work
HCMV UL97-C480F [4] = tested on: HCMV UL97-C480F; parameters: method as in PMID 31940472; key: R-high, high-level drug resistance; R-int, intermediate-level drug resistance; R-low, low-level drug resistance; S, drug sensitivity; settings: cited from earlier work
HCMV UL97-C592G [5] = tested on: HCMV UL97-C592G; parameters: method as in PMID 31940472; key: R-high, high-level drug resistance; R-int, intermediate-level drug resistance; R-low, low-level drug resistance; S, drug sensitivity; settings: cited from earlier work
HCMV UL97-C480F [6] = assay: HCMV reporter-based antiviral assay, drug-resistant mutant; type: cell-based, human cytomegalovirus; settings: Human betaherpesvirus 5, read-out: Measured EC50 ref. drugs UL97-C480F
Procedure: (§1) For the infection experiments, stocks of the following recombinant, reporter protein-expressing viruses (GFP or YFP (i.e., green or yellow fluorescent protein, respectively)) were propagated (in permissive cells), determined in their infectious titers performing the respective reporter assays, stored by aliquots at −80 °C, and used for the assessment of antiviral drug activities: human cytomegalovirus HCMV AD169-GFP (HFFs); murine cytomegalovirus MCMV C3X-GFP (MEFs); guinea pig cytomegalovirus GPCMV v403-GFP (GPEFs); human herpesvirus type 6A HHV-6A U1102-GFP (J-Jhan); herpes simplex virus type 1 HSV-1 166v VP22-GFP (HFFs); varicella zoster virus VZV Oka-GFP (HFFs); Epstein-Barr virus EBV Akata-GFP (Akata-BX1-GFP carrier cells; kindly provided by Lindsey Hutt-Fletcher and Rona Scott, Dept. Microbiol. Immunol., LSUHSC Univ., Shreveport, LA, USA); and Kaposi’s sarcoma-associated herpesvirus KSHV rKSHV.219-GFP/RFP (in iSLK.219 carrier cells).
(§2) For HCMV AD169-GFP infection, the replication assay was based on a seeding of 225,000 HFFs or 13,500 HFFs in 12 well or 96 well plates, respectively, which were then inoculated with HCMV AD169-GFP [55] at an MOI of 0.25 GFP-FU/mL/7 d for a 90 min period of inoculum–cell adsorption, followed by a medium refreshment including the immediate addition of antiviral compounds. At 7 d p.i., the infected HFFs were either directly fixed with 10% formalin for 20 min at 4 °C (when used for infection in the 96 well format) or lysed and transferred to 96 well plates (when used for infection in the 12 well format) so that the reporter of viral replication could be quantified by GFP fluorometry using a Perkin Elmer Victor X4 Multimode Plate Reader (Perkin Elmer, Waltham, MA, USA).
(§3) Due to the fact that the HCMV-encoded protein kinase pUL97 represents a functional and structural ortholog of the host CDKs (vCDK/pUL97), the viral mutants of ORF-UL97 were assessed for sensitivity against CDK7 inhibitors.

HCMV UL97-H520Q [7] = assay: as above; type: cell-based, human cytomegalovirus; settings: Human betaherpesvirus 5, read-out: Measured EC50 ref. drugs UL97-H520Q
Procedure: as §1, §2, §3

HCMV UL97-H411Y [8] = assay: as above; type: cell-based, human cytomegalovirus; settings: Human betaherpesvirus 5, read-out: Measured EC50 ref. drugs UL97-H411Y
Procedure: as §1, §2, §3

HCMV UL97-L397R = assay: as above; type: cell-based, human cytomegalovirus; settings: Human betaherpesvirus 5, read-out: Measured EC50 ref. drugs UL97-L397R
Procedure: as §1, §2, §3

HCMV UL97-H469V = assay: as above; type: cell-based, human cytomegalovirus; settings: Human betaherpesvirus 5, read-out: Measured EC50 ref. drugs UL97-H469V
Procedure: as §1, §2, §3

HCMV UL97-C592G [9] = assay: as above; type: cell-based, human cytomegalovirus; settings: Human betaherpesvirus 5, read-out: Measured EC50 ref. drugs UL97-C592G
Procedure: as §1, §2, §3

HCMV UL97-T409M [10] = assay: as above; type: cell-based, human cytomegalovirus; settings: Human betaherpesvirus 5, read-out: Measured EC50 ref. drugs UL97-T409M
Procedure: as §1, §2, §3

HCMV UL97-M460I [11] = assay: as above; type: cell-based, human cytomegalovirus; settings: Human betaherpesvirus 5, AD169, read-out: Measured EC50 ref. drugs UL97-M460I
Procedure: as §1, §2, §3

HCMV UL97-C603W [12] = assay: as above; type: cell-based, human cytomegalovirus; settings: Human betaherpesvirus 5, read-out: Measured EC50 ref. drugs UL97-C603W
Procedure: as §1, §2, §3

HCMV UL97-F342S [13] = assay: as above; type: cell-based, human cytomegalovirus; settings: Human betaherpesvirus 5, read-out: Measured EC50 ref. drugs UL97-F342S
Procedure: as §1, §2, §3

HCMV UL97-H411Y [14] = tested on: HCMV UL97-H411Y; parameters: method as in PMID 31940472; key: R-high, high-level drug resistance; R-int, intermediate-level drug resistance; R-low, low-level drug resistance; S, drug sensitivity; settings: cited from earlier work
HCMV UL97-C603W [15] = tested on: HCMV UL97-C603W; parameters: method as in PMID 31940472; key: R-high, high-level drug resistance; R-int, intermediate-level drug resistance; R-low, low-level drug resistance; S, drug sensitivity; settings: cited from earlier work
HCMV UL97-F342S [16] = tested on: HCMV UL97-F342S; parameters: method as in PMID 31940472; key: R-high, high-level drug resistance; R-int, intermediate-level drug resistance; R-low, low-level drug resistance; S, drug sensitivity; settings: (for F342Y); cited from earlier work
[17] = Neutral Red uptake assay (NRA), uninfected HFFs; type: cell-based; settings: human, read-out: CC50 (VZV-GFP system)
Procedure: The cytotoxic level of the compounds was determined by the use of an established quantitation of cell viability (i.e., Neutral Red uptake assay) performed after 3–7 d of compound incubation on uninfected cells (according to the respective duration of the antiviral reporter-based replication assay performed in parallel) as described earlier in [44].

[18] = Neutral Red uptake assay (NRA), iSLK.219 cells; type: cell-based; settings: human, read-out: CC50 (KSHV-GFP/RFP system)
Procedure: (§4) The virus recombinants VZV Oka-GFP and rKSHV.219-GFP/RFP were used for the infection of HFFs (VZV) or were continuously passaged in iSLK.219 carrier cells (KSHV), respectively, and cell viability was determined by NRA performed with uninfected HFFs or uninduced iSLK.219 cells, respectively. (A,B) Schematic depiction of the assay systems performed in a 96 well plate format. […] For the VZV-GFP system, virus stock VZV Oka-GFP was applied as a cell-bound infectious inoculum. After a 90 min period of inoculum adsorption to the cell surfaces, antiviral compounds were added to the culture media at serial dilutions (DMSO served as a solvent control for drug treatment of infected cells, while mock-infected cells served as a negative control). For the KSHV-GFP/RFP system, iSLK.219 cell lytic replication of KSHV (RFP reporter signal) was induced by the addition of 0.05 or 0.5 µg/mL doxycycline (dox) to the culture media. Cultivated dox-induced iSLK.219 cells were treated with antiviral compounds added at serial dilutions (DMSO served as a positive infection solvent control, while dox-untreated mock cells served as a negative control). HFFs or iSLK.219 cells were harvested at 4 d p.i. or 1 d after treatment, respectively, fixed by a 10 min incubation with 10% formalin, washed with PBS, and used for quantitation of the GFP or RFP reporter signal by PicoMD counting (ImageXpress® Pico device, Molecular Devices LLC, San Jose, CA, USA), with data evaluation using CellReporterXpress® software (version 2.9.3.1183, Molecular Devices LLC) as described earlier in [63]. (C) The antiviral activity of the reference drugs was determined with the VZV-GFP system in the 96 well format. EC50 values refer to measurements in quadruplicate, and the mean values ± SD of two experimental replicates are given. (D) The antiviral activity of the reference drugs was determined with the KSHV-GFP/RFP system in the 96 well format. EC50 values refer to measurements in triplicate, and the mean values ± SD are given for each of the two depicted experimental replicates.

VZV Oka-GFP = assay: microbe, parasite or virus in culture; type: cell-based, varicella zoster virus; settings: for EC50: Human alphaherpesvirus 3, 96 h
Excerpt: (§5) The virus recombinants VZV Oka-GFP and rKSHV.219-GFP/RFP were used for the infection of HFFs (virus stock VZV Oka-GFP applied as a cell-bound inoculum as described before) or were continuously passaged in iSLK.219 carrier cells, respectively (Figure 1). The conditions of the GFP/RFP-based assays were adapted to both the 96 well (Figure 1A,B) and 12 well formats, and details including the assessment of antiviral reference drugs are given (Figure 1C,D).
as §4

rKSHV.219-GFP/RFP = assay: KSHV-GFP/RFP reporter assay in iSLK.219 cells; type: cell-based, Kaposi’s sarcoma-associated herpesvirus
Excerpt: as §5, §4

For `CC(C)Nc1nc2cc(Cl)c(Cl)cc2n1[C@H]1O[C@@H](CO)[C@H](O)[C@@H]1O` [MBV, maribavir], the “Reported phenotype UL97-M460I” value (HCMV UL97-M460I [1]) is given as “R-low”, the “Reported phenotype UL97-H520Q” value (HCMV UL97-H520Q [2]) is given as “S” and the “Reported phenotype UL97-T409M” value (HCMV UL97-T409M [3]) is given as “R-high”. For the same molecule, the “Reported phenotype UL97-C480F” value (HCMV UL97-C480F [4]) was “R-high”, the “Reported phenotype UL97-C592G” value (HCMV UL97-C592G [5]) was “S” and the EC50 (HCMV UL97-C480F [6]) was > 30000 nM. The EC50 (HCMV UL97-H520Q [7]) was 40 nM, the EC50 (HCMV UL97-H411Y [8]) was 21000 nM and the EC50 (HCMV UL97-L397R) was 63900 nM. For the same molecule, the EC50 (HCMV UL97-H469V) was 620 nM, the EC50 (HCMV UL97-C592G [9]) was 770 nM and the EC50 (HCMV UL97-T409M [10]) was > 30000 nM. The EC50 (HCMV UL97-M460I [11]) was 10 nM, the EC50 (HCMV UL97-C603W [12]) was 1530 nM and the EC50 (HCMV UL97-F342S [13]) was 20300 nM. The “Reported phenotype UL97-H411Y” value (HCMV UL97-H411Y [14]) was “R-high”, the “Reported phenotype UL97-C603W” value (HCMV UL97-C603W [15]) was “R-int” and the “Reported phenotype UL97-F342S” value (HCMV UL97-F342S [16]) was “R-int”.
With `Nc1nc2c(ncn2COCCO)c(=O)[nH]1` [aciclovir] the CC50 [17] was > 100000 nM.
For `CCCCCCCCCCCCCCCCOCCCOP(=O)(O)CO[C@H](CO)Cn1ccc(N)nc1=O` [brincidofovir], the CC50 [17] was > 10000 nM, the CC50 ([18]; marked 0.05 μg/mL dox) was 23800 ± 2900 nM and the CC50 ([18]; marked 0.5 μg/mL dox) was 28200 nM. The “SI (VZV-GFP system)” value (VZV Oka-GFP; 96 well format) was > 143, the EC50 (VZV Oka-GFP; read-out: VZV EC50 (first experimental replicate)) was 70 ± 40 nM and the EC50 (VZV Oka-GFP; read-out: VZV EC50 (second experimental replicate)) was 60 ± 30 nM. For the same molecule, the “SI (KSHV-GFP/RFP system)” value (rKSHV.219-GFP/RFP; 0.05 μg/mL dox) was 126, the “SI (KSHV-GFP/RFP system)” value (rKSHV.219-GFP/RFP; 0.5 μg/mL dox) was 43 and the EC50 (rKSHV.219-GFP/RFP; Human gammaherpesvirus 8, read-out: KSHV EC50, iSLK.219, 96 well, induced with 0.5 μg/mL dox) was 700 nM.
